# Experimental data reported in patent US12329762B2, “Pharmaceutical preparation for improving absorption and postprandial hypoglycemic action of insulin” (Eli Lilly and Company, priority 2015, dated 2025).
# Legend:
# [1] = 8-hour euglycemic clamp, glucose infusion rate (pharmacodynamic profile) after sc lispro ± iloprost; format: in vivo, human; details: OT2D subjects with A1c>8%, sc lispro 10 or 30 U with vs without 1 nmol iloprost
# Source text: Euglycemic clamp. Subjects were admitted to the Sherbrooke University Hospital Clinical Research Center (CRC) at 8 PM the evening prior to each study. An i.v. antecubital cannula was installed to allow venous sampling for immediate whole blood glucose level measurements by a glucose analyzer ([…] Glucometer, Abbott Diabetes Care Inc.) at 30-min intervals until glycemic target is reached and at 2-hour intervals thereafter. A second contralateral cannula was installed for continuous i.v. administration of regular insulin and glucose, as needed, and plasma glucose has been brought progressively into the normal target range of 5-7 mmol/L overnight and then kept at this level. Experiments started around 8 AM. Patients have been kept fasting (drinking water permitted) during the entire 8-hour clamp study. […] Plasma glucose levels were monitored every 5 min for the first 4 hours and at 10-min intervals thereafter. […] Subjects were allowed to leave when glucose levels were stabilised over 6 mmol/L. Plasma lispro was measured by an ultra-specific radioimmunoassay (Linco Research Inc.) Detection limit is 18 pmol/L, intra-assay CV is 2.5% in our hands (Gagnon-Auger M, et al. Diabetes Care 2010;33(12):2502-7). […] The fractional plasmatic lispro AUCs were calculated by the trapezoidal method. […]
# [2] = 8-hour euglycemic clamp, plasma lispro (pharmacokinetic profile) after sc lispro ± iloprost; format: in vivo, human; details: OT2D subjects with A1c>8%, sc lispro 10 or 30 U with vs without 1 nmol iloprost
# Source text: Euglycemic clamp. Subjects were admitted to the Sherbrooke University Hospital Clinical Research Center (CRC) at 8 PM the evening prior to each study. An i.v. antecubital cannula was installed to allow venous sampling for immediate whole blood glucose level measurements by a glucose analyzer (FreeStlyle Lite Glucometer, Abbott Diabetes Care Inc.) at 30-min intervals until glycemic target is reached and at 2-hour intervals thereafter. A second contralateral cannula was installed for continuous i.v. administration of regular insulin and glucose, as needed, and plasma glucose has been brought progressively into the normal target range of 5-7 mmol/L overnight and then kept at this level. Experiments started around 8 AM. Patients have been kept fasting (drinking water permitted) during the entire 8-hour clamp study. […] Plasma glucose levels were monitored every 5 min for the first 4 hours and at 10-min intervals thereafter. […] Subjects were allowed to leave when glucose levels were stabilised over 6 mmol/L. Plasma lispro was measured by an ultra-specific radioimmunoassay (Linco Research Inc.) Detection limit is 18 pmol/L, intra-assay CV is 2.5% in our hands (Gagnon-Auger M, et al. Diabetes Care 2010;33(12):2502-7). […]
# The fractional plasmatic lispro AUCs were calculated by the trapezoidal method. […]
structure (smiles),measurement,setting,value
CC#CCC(C)[C@H](O)/C=C/[C@@H]1[C@H]2C/C(=C/CCCC(=O)O)C[C@H]2C[C@H]1O (stereo partly shown) [iloprost],maximal glucose infusion rates,[1]; FIG. 8,rapidely increased
same,"hypoglycemic effect (early total glucose infusion, 30 to 60 min)",[1]; FIG. 9,accelerated
same,maximal plasma lispro concentrations,[2]; FIG. 5,rapidely increased
same,"lispro absorption (fractional AUCs of plasmatic lispro, 10 to 40 min)",[2]; FIG. 7,accelerated
